The record followed here is article PMC6060375 (Drug Delivery, 2018).

A short description of data set [1]: Pharmacokinetics of TA in rats after i.v. administration. The format is in vivo, Sprague–Dawley (SD) rats. The following applies: both sexes, Sprague-Dawley, rat, plasma, iv, total TA, 3 mg/kg TA equivalent. The method, then: Sprague–Dawley (SD) rats (male and female, 300 ± 30 g) were purchased from SIPPR/BK Experimental Animal Co., Ltd (Shanghai, China). All animals were kept in a humanized environment, with the temperature maintained at 20 ± 2 °C and relative humidity at 50 ± 10%. All the animal procedures were performed following the approved protocol. SD rats were randomly divided into different groups (n = 4 in each group). Rats from different groups were intravenously (i.v.) administrated with TA solution, PEGylated TA solution mPEG2K-SA-TA, respectively. At the designated time points, the blood samples were collected into polyethylene tubes containing EDTA at 0, 0.083, 0.167, 0.5, 0.75, 1, 2, 4, 8, 12, 24, 36 and 48 h and then centrifuged at 12,000 rpm for 5 min to obtain plasma. The plasma samples were stored at −80 °C till analysis. The harvested plasma samples were prepared by sample direct saponification or extraction and analyzed by GC–MS/MS (Wang et al., [2015]). […]
The pharmacokinetic parameters were calculated by a noncompartmental analysis using WinNonlin (Version 6.4; Pharsight, Mountain View, CA, USA). […] The systemic exposure to TA (area under the plasma concentration versus time profile from the dosing time to the terminal sampling time, AUC0−t) was calculated by trapezoidal rule. […]

A short description of data set [2]: Tissue distribution of TA in tumor-bearing nude mice (GC-MS/MS). The format is in vivo. The settings on record: BALB/c nude, mouse, spleen, intravenous; TA measured after treatment of nude mice with mPEG2K-SA-TA; dose group not stated; read-out: tissue exposure to TA in spleen. The method, then:
In order to better support the anti-tumor evaluation and following histological assay, the harvested tissues were prepared as abovementioned method to monitor the amount of TA by GC–MS/MS in these tissues, including heart, liver, spleen, lung, kidney and tumor.

Each structure is given as a SMILES string.

As to `CCCCCCCCCCCCCCCCCCCCCCCCCCCCCCO` [TA, Triacontanol], the half-life in data set [1] (read-out: elimination half-life (t1/2) (converted)) was 2.57 h. Besides, the MRT in data set [1] (read-out: mean residence time) is 2.95 h. Also, the concentration at 21 days in data set [2] was 4170 ng/g.
